From patent publication US11207310B2 (PRILENIA NEUROTHERAPEUTICS LTD., priority 2016, dated 2021)
Like-named read-outs stand apart in the source and are kept apart here.

What was measured:
[1] = tested on: patients with HD; details: for Δ to placebo: Total Maximal Chorea (TMC): HD1 patients; for Change from baseline in UHDRS TMS Chorea, Δ to placebo / Change from baseline in UHDRS TMS Chorea, Wk 26 Δ to placebo: Week 26; for Change from baseline in UHDRS TMS Chorea, Δ to placebo: ALL; for Change from baseline in UHDRS TMS Chorea, Wk 26 Δ to placebo: Stage 1 BL TFC 11-13
Description: In the UHDRS, maximal chorea was scored from 0 (absent) to 4 (marked/prolonged) on each of the following items: face, mouth, trunk, right upper extremity, left upper extremity, right lower extremity, and left lower extremity. Maximal chorea is the sum of all scores.

[2] = tested on: patients with HD; details: for PBA Irritability, Severity×Frequency, change from baseline, Wk 52 Δ to placebo: BL TFC≥7
Method: The PBA-s is a brief semi-structured interview covering the most common behavioral and psychiatric manifestations of HD. […] Severity and frequency scores are multiplied to produce an overall ‘PBA score’ for each symptom.
The PBA-s is a brief semi-structured interview covering the most common behavioral and psychiatric manifestations of HD.
The total PBA score is calculated by the sum of all PBA-s scores across symptoms/domains.

CCCN1CCC(c2cccc(S(C)(=O)=O)c2)CC1 [pridopidine, 4-[3-(methylsulfonyl)phenyl]-1-propyl-piperidine]
Δ to placebo: Total Maximal Chorea (TMC) ([1]; 45 mg bid, week 26): −1.4
Δ to placebo: Total Maximal Chorea (TMC) ([1]; 45 mg bid, week 52): −0.93
Change from baseline in UHDRS TMS Chorea, Δ to placebo ([1]; 45 mg bid): 0.92
Change from baseline in UHDRS TMS Chorea, Wk 26 Δ to placebo ([1]; 45 mg bid): −1.4
Δ to placebo: Total Maximal Chorea (TMC) ([1]; 67.5 mg bid, week 26): −2.07
Δ to placebo: Total Maximal Chorea (TMC) ([1]; 67.5 mg bid, week 52): −0.13
Change from baseline in UHDRS TMS Chorea, Δ to placebo ([1]; 67.5 mg bid): 0.81
Change from baseline in UHDRS TMS Chorea, Wk 26 Δ to placebo ([1]; 67.5 mg bid): −2.07
Δ to placebo: Total Maximal Chorea (TMC) ([1]; 90 mg bid, week 26): −2.52
Δ to placebo: Total Maximal Chorea (TMC) ([1]; 90 mg bid, week 52): −2.43
Change from baseline in UHDRS TMS Chorea, Δ to placebo ([1]; 90 mg bid): 0.36
Change from baseline in UHDRS TMS Chorea, Wk 26 Δ to placebo ([1]; 90 mg bid): −2.52
Δ to placebo: Total Maximal Chorea (TMC) ([1]; 112.5 mg bid, week 26): −1.08
Δ to placebo: Total Maximal Chorea (TMC) ([1]; 112.5 mg bid, week 52): 0.88
Change from baseline in UHDRS TMS Chorea, Δ to placebo ([1]; 112.5 mg bid): 1.05
Change from baseline in UHDRS TMS Chorea, Wk 26 Δ to placebo ([1]; 112.5 mg bid): −1.08
Change from baseline in PBA Depressed Mood, Severity×Frequency, Δ to placebo ([2]; 45 mg bid, Week 26, ALL): −0.29
PBA Disoriented Behavior, Severity×Frequency, change from baseline, Δ to placebo ([2]; 45 mg bid, Week 26, ALL, p value 0.2864): −0.2
PBA Obsessive-Compulsive, Severity×Frequency, change from baseline, Δ to placebo ([2]; 45 mg bid, Week 26, ALL, p value 0.8081): 0.1
Change from baseline in PBA Depressed Mood, Severity×Frequency, Δ to placebo ([2]; 45 mg bid, Week 26, Stage 1 BL TFC 11-13): −0.63
PBA Obsessive-Compulsive, Severity×Frequency, change from baseline, Δ to placebo ([2]; 45 mg bid, Week 26, Stage 1 BL TFC 11-13, p value 0.0035): −2.11
PBA Disoriented Behavior, Severity×Frequency, change from baseline, Δ to placebo ([2]; 45 mg bid, Week 26, Stage 1 BL TFC 11-13, p value 0.0381): −0.19
Change from baseline PBA Irritability, Severity×Frequency, Δ to placebo ([2]; 45 mg bid, Week 52, ALL): −1.03
PBA Obsessive-Compulsive, Severity×Frequency, change from baseline, Δ to placebo ([2]; 45 mg bid, Week 52, ALL, p value 0.5733): −0.24
PBA Irritability, Severity×Frequency, change from baseline, Δ to placebo ([2]; 45 mg bid, Week 52, BL TFC<7, p value 0.0165): −2.42
PBA Irritability, Severity×Frequency, change from baseline, Wk 52 Δ to placebo ([2]; 45 mg bid, Week 52, p value 0.1789): −0.59
PBA Obsessive-Compulsive, Severity×Frequency, change from baseline, Δ to placebo ([2]; 45 mg bid, Week 52, Stage 1 BL TFC 11-13, p value 0.007): −2.73
PBA Irritability, Severity×Frequency, change from baseline, Δ to placebo ([2]; 45 mg bid, Week 52, Stage 3-5 BL TFC 0-6, p value 0.0165): −2.42
Change from baseline in PBA Depressed Mood, Severity×Frequency, Δ to placebo ([2]; 67.5 mg bid, Week 26, ALL): −0.65
PBA Disoriented Behavior, Severity×Frequency, change from baseline, Δ to placebo ([2]; 67.5 mg bid, Week 26, ALL, p value 0.1357): −0.28
PBA Obsessive-Compulsive, Severity×Frequency, change from baseline, Δ to placebo ([2]; 67.5 mg bid, Week 26, ALL, p value 0.2512): −0.45
Change from baseline in PBA Depressed Mood, Severity×Frequency, Δ to placebo ([2]; 67.5 mg bid, Week 26, Stage 1 BL TFC 11-13): −2.01
PBA Obsessive-Compulsive, Severity×Frequency, change from baseline, Δ to placebo ([2]; 67.5 mg bid, Week 26, Stage 1 BL TFC 11-13, p value 0.0035): −2.03
PBA Disoriented Behavior, Severity×Frequency, change from baseline, Δ to placebo ([2]; 67.5 mg bid, Week 26, Stage 1 BL TFC 11-13, p value 0.0615): −0.16
Change from baseline PBA Irritability, Severity×Frequency, Δ to placebo ([2]; 67.5 mg bid, Week 52, ALL): −0.63
PBA Obsessive-Compulsive, Severity×Frequency, change from baseline, Δ to placebo ([2]; 67.5 mg bid, Week 52, ALL, p value 0.5068): −0.28
PBA Irritability, Severity×Frequency, change from baseline, Δ to placebo ([2]; 67.5 mg bid, Week 52, BL TFC<7, p value 0.0429): −1.78
PBA Irritability, Severity×Frequency, change from baseline, Wk 52 Δ to placebo ([2]; 67.5 mg bid, Week 52, p value 0.466): −0.33
PBA Obsessive-Compulsive, Severity×Frequency, change from baseline, Δ to placebo ([2]; 67.5 mg bid, Week 52, Stage 1 BL TFC 11-13, p value 0.0011): −3.24
PBA Irritability, Severity×Frequency, change from baseline, Δ to placebo ([2]; 67.5 mg bid, Week 52, Stage 3-5 BL TFC 0-6, p value 0.0429): −1.78
Change from baseline in PBA Depressed Mood, Severity×Frequency, Δ to placebo ([2]; 90 mg bid, Week 26, ALL): −0.34
PBA Disoriented Behavior, Severity×Frequency, change from baseline, Δ to placebo ([2]; 90 mg bid, Week 26, ALL, p value 0.607): −0.09
PBA Obsessive-Compulsive, Severity×Frequency, change from baseline, Δ to placebo ([2]; 90 mg bid, Week 26, ALL, p value 0.7541): −0.12
Change from baseline in PBA Depressed Mood, Severity×Frequency, Δ to placebo ([2]; 90 mg bid, Week 26, Stage 1 BL TFC 11-13): −0.84
PBA Obsessive-Compulsive, Severity×Frequency, change from baseline, Δ to placebo ([2]; 90 mg bid, Week 26, Stage 1 BL TFC 11-13, p value 0.0251): −1.71
PBA Disoriented Behavior, Severity×Frequency, change from baseline, Δ to placebo ([2]; 90 mg bid, Week 26, Stage 1 BL TFC 11-13, p value 0.093): −0.16
Change from baseline PBA Irritability, Severity×Frequency, Δ to placebo ([2]; 90 mg bid, Week 52, ALL): −1.01
PBA Obsessive-Compulsive, Severity×Frequency, change from baseline, Δ to placebo ([2]; 90 mg bid, Week 52, ALL, p value 0.7508): −0.13
PBA Irritability, Severity×Frequency, change from baseline, Δ to placebo ([2]; 90 mg bid, Week 52, BL TFC<7, p value 0.0422): −1.79
PBA Irritability, Severity×Frequency, change from baseline, Wk 52 Δ to placebo ([2]; 90 mg bid, Week 52, p value 0.0311): −0.95
PBA Obsessive-Compulsive, Severity×Frequency, change from baseline, Δ to placebo ([2]; 90 mg bid, Week 52, Stage 1 BL TFC 11-13, p value 0.021): −2.47
PBA Irritability, Severity×Frequency, change from baseline, Δ to placebo ([2]; 90 mg bid, Week 52, Stage 3-5 BL TFC 0-6, p value 0.0422): −1.79
Change from baseline in PBA Depressed Mood, Severity×Frequency, Δ to placebo ([2]; 112.5 mg bid, Week 26, ALL): −0.52
PBA Obsessive-Compulsive, Severity×Frequency, change from baseline, Δ to placebo ([2]; 112.5 mg bid, Week 26, ALL, p value 0.1061): −0.63
PBA Disoriented Behavior, Severity×Frequency, change from baseline, Δ to placebo ([2]; 112.5 mg bid, Week 26, ALL, p value 0.6771): −0.08
Change from baseline in PBA Depressed Mood, Severity×Frequency, Δ to placebo ([2]; 112.5 mg bid, Week 26, Stage 1 BL TFC 11-13): −1.43
PBA Obsessive-Compulsive, Severity×Frequency, change from baseline, Δ to placebo ([2]; 112.5 mg bid, Week 26, Stage 1 BL TFC 11-13, p value 0.0114): −1.73
PBA Disoriented Behavior, Severity×Frequency, change from baseline, Δ to placebo ([2]; 112.5 mg bid, Week 26, Stage 1 BL TFC 11-13, p value 0.0357): −0.18
Change from baseline PBA Irritability, Severity×Frequency, Δ to placebo ([2]; 112.5 mg bid, Week 52, ALL): −0.84
PBA Obsessive-Compulsive, Severity×Frequency, change from baseline, Δ to placebo ([2]; 112.5 mg bid, Week 52, ALL, p value 0.7789): −0.12
PBA Irritability, Severity×Frequency, change from baseline, Δ to placebo ([2]; 112.5 mg bid, Week 52, BL TFC<7, p value 0.0542): −1.71
PBA Irritability, Severity×Frequency, change from baseline, Wk 52 Δ to placebo ([2]; 112.5 mg bid, Week 52, p value 0.1927): −0.6
PBA Obsessive-Compulsive, Severity×Frequency, change from baseline, Δ to placebo ([2]; 112.5 mg bid, Week 52, Stage 1 BL TFC 11-13, p value 0.005): −2.73
